Results: ChEMBL document CHEMBL1135380, “Synthesis and structure-activity relationship of 2-(aminoalkyl)-2,3,3a,8-tetrahydrodibenzo[c,f]isoxazolo[2,3-a]azepine derivatives: a novel series of 5-HT(2A/2C) receptor antagonists. Part 1” (Bioorg Med Chem Lett, 2002)

How the values were obtained:
[1] = molecular target: T1, 5-hydroxytryptamine receptor 2C (Homo sapiens, UniProt P28335); experiment: Binding affinity for human cloned 5-hydroxytryptamine 2C receptor expressed in CHO cells using [3H]mesulergine as radioligand; type: cell-based
T1 sequence (P28335 whole entry): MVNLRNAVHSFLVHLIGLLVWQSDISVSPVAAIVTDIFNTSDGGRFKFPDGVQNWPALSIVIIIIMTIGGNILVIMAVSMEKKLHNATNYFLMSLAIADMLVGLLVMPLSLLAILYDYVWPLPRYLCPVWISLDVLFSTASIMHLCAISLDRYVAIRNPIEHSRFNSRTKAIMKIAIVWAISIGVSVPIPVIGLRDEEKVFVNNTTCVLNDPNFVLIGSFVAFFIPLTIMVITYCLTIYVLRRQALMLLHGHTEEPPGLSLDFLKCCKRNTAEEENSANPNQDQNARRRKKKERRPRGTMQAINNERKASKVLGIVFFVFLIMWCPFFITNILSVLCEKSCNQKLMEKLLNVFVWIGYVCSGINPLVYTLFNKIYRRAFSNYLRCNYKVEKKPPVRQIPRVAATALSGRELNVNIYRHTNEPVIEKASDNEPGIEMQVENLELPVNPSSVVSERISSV

[2] = molecular target: 5-hydroxytryptamine receptor 2A (Homo sapiens, UniProt P28223); experiment: biochemical; type: cell-based, L929
Description: Binding affinity for human cloned 5-hydroxytryptamine 2A receptor expressed in L929 cells using [125I]R91150 as radioligand

[3] = molecular target: T2, 5-hydroxytryptamine receptor 2C (Rattus norvegicus) (UniProt P08909); experiment: In vivo activity in rat mCPP challenge test following p.o. administration.; type: functional, organism-based
T2 sequence (whole entry): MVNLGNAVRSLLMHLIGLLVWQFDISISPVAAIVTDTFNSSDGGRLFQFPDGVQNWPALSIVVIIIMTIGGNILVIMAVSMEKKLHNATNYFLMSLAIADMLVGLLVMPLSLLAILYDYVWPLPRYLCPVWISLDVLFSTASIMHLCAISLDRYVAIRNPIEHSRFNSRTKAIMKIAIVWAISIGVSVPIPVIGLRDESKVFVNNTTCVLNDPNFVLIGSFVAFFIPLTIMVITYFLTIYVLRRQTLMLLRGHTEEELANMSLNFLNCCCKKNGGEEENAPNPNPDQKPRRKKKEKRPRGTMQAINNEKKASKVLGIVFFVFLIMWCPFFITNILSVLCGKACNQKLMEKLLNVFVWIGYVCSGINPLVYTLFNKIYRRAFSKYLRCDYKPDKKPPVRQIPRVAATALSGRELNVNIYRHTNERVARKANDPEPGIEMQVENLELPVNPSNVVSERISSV

Histamine H1 receptor = Histamine H1 receptor (Homo sapiens, UniProt P35367); experiment: Binding affinity for human cloned Histamine H1 receptor expressed in CHO cells using [3H]pyrilamine as radioligand; type: cell-based
Rattus norvegicus = experiment: In vivo activity in mCPP challenge test were performed in male Wistar rats by subcutaneous administration; type: functional
[4] = Rattus norvegicus, sc, read-out: ED50

Chain of Histamine H1 receptor (P35367 whole entry): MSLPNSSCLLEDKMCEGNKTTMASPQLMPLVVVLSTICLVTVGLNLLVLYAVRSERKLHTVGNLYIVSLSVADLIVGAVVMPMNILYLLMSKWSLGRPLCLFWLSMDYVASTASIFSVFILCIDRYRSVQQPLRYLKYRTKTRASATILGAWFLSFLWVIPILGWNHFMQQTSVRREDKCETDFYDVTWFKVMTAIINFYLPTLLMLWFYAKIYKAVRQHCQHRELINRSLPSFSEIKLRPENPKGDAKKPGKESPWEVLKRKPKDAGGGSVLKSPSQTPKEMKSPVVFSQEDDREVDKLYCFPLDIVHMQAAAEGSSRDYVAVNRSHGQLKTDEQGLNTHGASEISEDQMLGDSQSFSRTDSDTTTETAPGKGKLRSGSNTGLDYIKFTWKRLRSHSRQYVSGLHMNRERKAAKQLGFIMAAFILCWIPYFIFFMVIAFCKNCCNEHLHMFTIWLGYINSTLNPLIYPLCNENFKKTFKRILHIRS
Chain of 5-hydroxytryptamine receptor 2A (P28223 whole entry): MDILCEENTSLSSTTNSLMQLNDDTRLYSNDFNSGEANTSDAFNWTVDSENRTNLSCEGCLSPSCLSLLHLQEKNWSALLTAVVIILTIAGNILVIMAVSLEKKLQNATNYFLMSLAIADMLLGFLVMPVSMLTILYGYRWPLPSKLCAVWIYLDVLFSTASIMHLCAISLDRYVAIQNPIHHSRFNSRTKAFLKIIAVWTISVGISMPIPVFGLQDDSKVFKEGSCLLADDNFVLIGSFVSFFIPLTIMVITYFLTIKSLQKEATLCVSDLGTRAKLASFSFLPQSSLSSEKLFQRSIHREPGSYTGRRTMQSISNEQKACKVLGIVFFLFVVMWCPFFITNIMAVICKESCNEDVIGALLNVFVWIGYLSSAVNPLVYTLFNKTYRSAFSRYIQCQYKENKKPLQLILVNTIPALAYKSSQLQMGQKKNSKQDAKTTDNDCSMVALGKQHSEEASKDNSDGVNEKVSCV

| Structure (SMILES) | IC50 [1] [µM] | IC50 [2] [µM] | ED50 [3] [mg/kg] | IC50 (Histamine H1 receptor) [µM] | ED50 (Rattus norvegicus; [4]) [mg/kg] | ED50 (Rattus norvegicus) [mg/kg] |
| --- | --- | --- | --- | --- | --- | --- |
| CN(C)C(=O)C1CC2c3ccccc3Cc3ccccc3N2O1 (stereo not drawn) | > 1 | > 1 | > 2.5 | > 1 | – | – |
| c1ccc(N2CCN(CC3CC4c5ccccc5Cc5ccccc5N4O3)CC2)cc1 (stereo not drawn) | > 1 | > 1 | – | > 1 | – | – |
| CN(C)CCCCC1CC2c3ccccc3Cc3ccccc3N2O1 (stereo not drawn) | > 1 | > 1 | > 2.5 | > 1 | – | – |
| CN1CCN(CC2CC3c4ccccc4Cc4ccccc4N3O2)CC1 (stereo not drawn) | > 1 | 0.282 | > 2.5 | – | > 2.5 | – |
| O=C1c2ccccc2C(=O)N1CC1CC2c3ccccc3Cc3ccccc3N2O1 (stereo not drawn) | > 1 | > 1 | > 2.5 | > 1 | – | – |
| c1ccc2c(c1)Cc1ccccc1N1OC(CN3CCOCC3)CC21 (stereo not drawn) | > 1 | 0.141 | – | 0.0263 | 2.5 | – |
| CN(C)CC1CC2c3ccccc3Oc3ccc(Cl)cc3N2O1 (stereo not drawn) | 0.0038 | 0.00191 | > 2.5 | 0.102 | > 2.5 | – |
| c1ccc2c(c1)CN(CC1CC3c4ccccc4Cc4ccccc4N3O1)C2 (stereo not drawn) | > 1 | > 1 | > 2.5 | > 1 | – | – |
| c1ccc2c(c1)Cc1ccccc1N1OC(CN3CCNCC3)CC21 (stereo not drawn) | > 1 | > 1 | > 2.5 | > 1 | – | – |
| Clc1cccc(N2CCN(CC3CC4c5ccccc5Cc5ccccc5N4O3)CC2)c1 (stereo not drawn) | > 1 | > 1 | > 2.5 | > 1 | – | – |

More lines, main results first:

| IC50 [1] [µM] | IC50 [2] [µM] | ED50 [3] [mg/kg] | IC50 (Histamine H1 receptor) [µM] | Structure (SMILES) | ED50 (Rattus norvegicus; [4]) [mg/kg] | ED50 (Rattus norvegicus) [mg/kg] |
| --- | --- | --- | --- | --- | --- | --- |
| 0.0138 | 0.0575 | – | 0.00166 | CN(C)CC1(C)CC2c3ccccc3Cc3ccccc3N2O1 (stereo in doubt; cis) [listing 1 of 2 here] | – | – |
| – | – | > 2.5 | – | CN(C)CC1(C)CC2c3ccccc3Cc3ccccc3N2O1 (stereo in doubt; cis) [listing 2 of 2 here] | – | – |
| 0.324 | > 1 | > 2.5 | 0.151 | CC(C)N(CC1CC2c3ccccc3Cc3ccccc3N2O1)C(C)C (stereo not drawn) | – | – |
| 0.692 | > 1 | > 2.5 | > 1 | CN(CC1CC2c3ccccc3Cc3ccccc3N2O1)C(=O)C(F)(F)F (stereo not drawn) | – | – |
| 0.933 | > 1 | – | 0.0617 | CN(C)CC1(C)CC2c3ccccc3Cc3ccccc3N2O1 (stereo in doubt; trans) [listing 1 of 2 here] | > 2.5 | – |
| 0.0145 | 0.0427 | 2.5 | 0.0135 | CCN(CC)CC1CC2c3ccccc3Cc3ccccc3N2O1 (stereo not drawn) | – | – |
| – | – | > 2.5 | – | CN(C)CC1(C)CC2c3ccccc3Cc3ccccc3N2O1 (stereo in doubt; trans) [listing 2 of 2 here] | – | – |
| 0.00562 | 0.0158 | > 2.5 | 0.2 | NCC1CC2c3ccccc3Cc3ccccc3N2O1 (stereo not drawn) | – | – |
| 0.0186 | 0.00389 | > 2.5 | 0.676 | CN(C)CCCC1CC2c3ccccc3Cc3ccccc3N2O1 (stereo not drawn) | – | – |
| > 1 | > 1 | – | > 1 | CN(C)CC1CC2c3ccccc3Cc3ccccc3N2O1 (trans isomer) | – | >2.5 |
| 0.0162 | 0.0251 | > 2.5 | 0.00302 | c1ccc2c(c1)Cc1ccccc1N1OC(CN3CCCC3)CC21 (stereo not drawn) | > 2.5 | – |
